# According to publication PMC7125190, “Native/citrullinated LL37-specific T-cells help autoantibody production in Systemic Lupus Erythematosus” (Scientific Reports, 2020):
# Columns and labels:
# pDCs = test: Stimulation of pDCs (IFN-α ELISA); format: cell-based; conditions: peptide premixed with human genomic DNA 10 µg/mL, 24 hours, Fig. S4B
# From the text: Buffy coats of HD were from Centro Trasfusionale, Policlinico Umberto I, Rome, IT. After separation of mononuclear cells by Ficoll centrifugation, pDCs were purified as described[9],[10], by using the Diamond Plasmacytoid Dendritic Cell Isolation Kit (Miltenyi Biotec) to obtain 99% purity.
# Antibodies and reagents for flow cytometry, confocal microscopy and immunohistochemistry Antibodies to CD4, CD8, CD3, conjugated with various fluorochromes [FITC, phycoerythrin (PE), peridinin-chlorophyll-protein (PerCp), allophycocyanin (APC), PE-Cy7] were from BD Biosciences or eBiosciences (San Diego, CA). For further LL37-specific T-cell characterization, FITC-, APC-, PE-, PerCp-, PerCpCy5.5-, APC-Cy7-, AlexaFluor488-conjugated CCR6, -CLA, -CXCR5 (FAB190), PD1, -ICOS, -CD38, CD19, CD20, CD27, CD138 antibodies were purchased from BD Biosciences, eBiosciences, Novus Biologicals (Littleton, CO), R&D (Minneapolis, MN), Invitrogen Life Technologies. […]
# Purified pDCs were seeded into 96-well round-bottom plates at 3.5/5 × 10^4 cells per well in 200 μl RPMI 1640 (GIBCO), supplemented with 15% fetal calf serum (FCS), 1% Hepes and 1% sodium piruvate. […] IFN-α in supernatants was measured by enzyme linked immunosorbent assay (ELISA) (MabTech, France) after 24 hours. […]
# [1] = test system: SLE/CLE CD4+ T-cell clones; test: T-cell clone reactivity (BrdU, HLA-matched B-LCLs pulsed with peptide); format: cell-based, human; conditions: clones from one SLE and one CLE patient
# Experimental: PBMCs were purified, from EDTA-treated blood, on Ficoll-Hypaque (Pharmacia Fine Chemicals, Uppsala, Sweden) were incubated (10^5 cells/well) in 96-well-flat-bottom-microplates (BD) in T cell-medium (RPMI 1640, 10% heat-inactivated human serum, HS, Gibco), 2 mM L-glutamine, 10 U/mL penicillin, and 100 μg/mL streptomycin), with/without peptides. We performed assays on fresh cells, within 1-to-3 hours from collection, or on PBMCs frozen in 90% FCS-10%DMSO, whose viability we assessed by Trypan blue exclusion, at inverted microscope. Recovery of live cells was between 65 and 85 % of the frozen number. At day3 and 5, BrdU was added (1 μg/mL). BrdU-incorporation was detected by APC-labeled anti-BrdU antibody (BD Pharmingen), after surface staining by flow cytometry. Internal control for T-cell viability and proliferation was PHA treatment (2 μg/mL). SI for proliferation was calculated by dividing percent of BrdU-staining in the presence of each peptide used to stimulate cells by percent of BrdU-staining in the absence of peptide stimulation. SI for proliferation was considered positive when>3. This cut-off was obtained by calculating the mean+2DS [1.5 + 2 (0.6)] (of the stimulation indexes calculated as above) of the proliferation of HD. […]
# Assays were repeated twice with each patient. […] Ror-ɣt and Bcl-6 were measured by intracellular staining and flow cytometry, after 48 hours culture with LL37 or control antigen, and were analyzed on CD38highCD4 T-cells. […]
# PBMCs were stimulated (2x10^6 cells/mL) with LL37 for 7 days and re-stimulated (10 days) with LL37-pulsed (10 µg/mL) autologous-ɣ-irradiated-(30Gy)-PBMCs in T-cell medium in the presence of human/recombinant (hr)IL-2 (Boehringer-Mannheim, Indian, USA). T cell lines-specificity was analyzed by using peptide-pulsed (0.1-10 µg/mL) autologous-irradiated PBMCs (30Gy) or lymphoblastoid-cell-lines (B-LCLs) (150Gy, 33). […]
# analyzed by flow-cytometry (after staining by BrdU-detection kit, BD Pharmingen). […] Clones reactivity and HLA-restriction were analyzed using HLA-matched-homozigous B-LCLs, pulsed with […]
Substance,adjuvant activity for DCs (pDCs),T-cell clone reactivity [1]
"LLGDFFR(cit)KSKEKIGKEFKR(cit)IVQR(cit)IKDFLR(cit)NLVPR(cit)TES [cit-LL37, citrullinated LL37 (citrullinated at all five arginin positions)]",completely devoid of adjuvant activity for DCs,Other clones proliferated to both native LL37 and cit-LL37
"LLGDFFRKSKEKIGKEFKRIVQRIKDFLRNLVPRTES [LL37, native LL37, antimicrobial peptide, 37 aa]",,Some of the T-cell clones proliferated exclusively after stimulation with native LL37
